The text below walks through data of publication PMC7252619 (PLoS ONE, 2020).

Like-named read-outs stand apart in the source and are kept apart here.

The target in the assay is T1, MAP2K2 (Homo sapiens, UniProt P36507).
T1 construct: purchased ReactionBiology
Description: Kinase activity test (ReactionBiology), % enzyme activity relative to DMSO. It counts as biochemical. Conditions: MEK2.

[1] abbreviates: Average, read-out: % Enzyme Activity (relative to DMSO controls), Average.
The mark [2] stands for this setting: replicate Data 1, read-out: % Enzyme Activity (relative to DMSO controls), Data 1.
The mark [3] stands for this setting: replicate Data 2, read-out: % Enzyme Activity (relative to DMSO controls), Data 2.

T1 sequence (P36507 whole entry): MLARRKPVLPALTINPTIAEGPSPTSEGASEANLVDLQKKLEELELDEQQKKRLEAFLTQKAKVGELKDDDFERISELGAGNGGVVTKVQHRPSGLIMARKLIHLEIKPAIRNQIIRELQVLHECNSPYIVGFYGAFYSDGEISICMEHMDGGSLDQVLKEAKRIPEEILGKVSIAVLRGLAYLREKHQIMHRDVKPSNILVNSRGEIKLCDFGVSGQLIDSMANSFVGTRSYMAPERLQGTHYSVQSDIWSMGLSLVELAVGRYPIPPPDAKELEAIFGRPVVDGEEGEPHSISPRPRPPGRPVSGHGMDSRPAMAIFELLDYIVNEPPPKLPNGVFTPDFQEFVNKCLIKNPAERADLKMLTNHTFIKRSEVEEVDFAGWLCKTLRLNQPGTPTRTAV

`Nc1ncnc2c1ncn2[C@@H]1O[C@H](CO)[C@@H](O)[C@H]1O` [Adenosine, reference compound]: the remaining activity at 1 µM was 96.1% under setting [1], 96.6% under setting [2] and 95.7% under setting [3]. The remaining activity at 10 µM came out at 59% under setting [1], 60.6% under setting [2] and 57.4% under setting [3].
